Where “and” joins values, the source holds several entries; their conditions need not be identical. Equal entries are not always repeated.
Tests used:
[1] = target: T1, PARP10cat (Homo sapiens, UniProt Q53GL7); experiment: Inhibition of PARP10cat-mediated ADP-ribosylation of SRPK2 using NAD+ (100 μM); format: biochemical; details: for IC50 / PARP10cat pIC50 ± S.E.M.: ADP-ribosylation of SRPK2, NAD+ 100 μM; for PARP11/PARP10: ratio of IC50 values, PARP11 over PARP10cat; for increase in potency for PARP10 compared to comparator compound: 8 and 3 compared to unsubstituted 1, 14 compared to 3; for improvement in selectivity for PARP10 over PARP11 compared to parent compound: 12 vs 8, 14 vs 3, 20, 22 vs 16, 23, 24 vs 15
T1 sequence (Q53GL7 806-1025 limits assumed): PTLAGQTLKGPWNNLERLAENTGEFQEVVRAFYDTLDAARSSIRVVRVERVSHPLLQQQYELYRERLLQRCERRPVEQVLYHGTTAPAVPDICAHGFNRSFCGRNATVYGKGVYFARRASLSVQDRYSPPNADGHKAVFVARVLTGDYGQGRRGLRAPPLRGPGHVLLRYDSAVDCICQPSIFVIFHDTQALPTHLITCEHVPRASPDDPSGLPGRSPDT

[2] = target: T2, PARP11 (Homo sapiens, UniProt Q9NR21); experiment: Inhibition of PARP11-mediated ADP-ribosylation of SRPK2 using NAD+ (100 μM); format: biochemical; details: for IC50 / PARP11 pIC50 ± S.E.M.: ADP-ribosylation of SRPK2, NAD+ 100 μM
T2 sequence (Q9NR21 1-338): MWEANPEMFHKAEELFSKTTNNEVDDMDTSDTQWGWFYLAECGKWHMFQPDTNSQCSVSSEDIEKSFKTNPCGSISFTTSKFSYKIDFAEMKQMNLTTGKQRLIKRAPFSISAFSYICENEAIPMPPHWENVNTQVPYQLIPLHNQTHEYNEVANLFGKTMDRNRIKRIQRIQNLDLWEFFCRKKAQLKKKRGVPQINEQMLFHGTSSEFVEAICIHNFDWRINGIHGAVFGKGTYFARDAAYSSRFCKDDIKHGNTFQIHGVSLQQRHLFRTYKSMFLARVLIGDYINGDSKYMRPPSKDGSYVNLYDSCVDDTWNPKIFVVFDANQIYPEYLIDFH

[3] = Aqueous solubility observed when assaying; format: physicochemical; details: observed in assays

| SMILES | IC50 [1] [µM] | PARP10cat pIC50 ± S.E.M. [1] | PARP11/PARP10 [1] | IC50 [2] [µM] | PARP11 pIC50 ± S.E.M. [2] | selectivity for PARP10 over PARP11 [1] | increase in potency for PARP10 compared to comparator compound [1] [fold] | selectivity for PARP11 over PARP10 [2] [fold] | improvement in selectivity for PARP10 over PARP11 compared to parent compound [1] [fold] | decrease in potency for PARP11 compared to compound 8 [2] [fold] | aqueous solubility [3] |
| --- | --- | --- | --- | --- | --- | --- | --- | --- | --- | --- | --- |
| O=C1NCCc2c(Br)cccc21 [Compound 2] | 10.1 | 4.99 ± 0.04 | 0.29 | 2.9 | 5.54 ± 0.04 |  |  |  |  |  |  |
| Cc1cccc2c1CCNC2=O [Compound 3, 5-methyl-dq] | 8.6 | 5.01 ± 0.03 | 0.24 | 2.1 | 5.67 ± 0.05 | 0.24 fold | 8 |  |  |  |  |
| O=C1NCCc2c1cccc2-c1ccccc1 [Compound 4] | 35 | 4.46 ± 0.04 | 0.03 | 1.2 | 5.93 ± 0.04 |  |  | 30 |  |  |  |
| O=C1NCCc2cc(Br)ccc21 [Compound 5] | 17.1 | 4.77 ± 0.03 | 0.79 | 13.5 | 4.87 ± 0.03 |  |  |  |  |  |  |
| Cc1ccc2c(c1)CCNC2=O [Compound 6] | 33.1 | 4.48 ± 0.04 | 1.0 | 34.1 | 4.47 ± 0.06 |  |  |  |  |  |  |
| O=C1NCCc2cc(Cc3ccccc3)ccc21 [Compound 7] |  |  | <0.33 | 16.7 | 4.78 ± 0.03 |  |  |  |  |  |  |
| O=C1NCCc2cc(-c3ccccc3)ccc21 [Compound 8] | 2.5 | 5.61 ± 0.03 | 3.5 | 8.7 | 5.06 ± 0.03 | 4 fold | 28 |  |  |  |  |
| O=C1NCCc2cc(-c3cccc(F)c3)ccc21 [Compound 9] | 1.4 | 5.85 ± 0.03 | 4.4 | 6.1 | 5.22 ± 0.04 |  |  |  |  |  |  |
| O=C1NCCc2cc(-c3cccc(Cl)c3)ccc21 [Compound 10] | 1.1 | 5.95 ± 0.02 | 5.3 | 5.8 | 5.24 ± 0.03 |  |  |  |  |  |  |
| Cc1cccc(-c2ccc3c(c2)CCNC3=O)c1 [Compound 11] | 2.1 | 5.67 ± 0.02 | 2.2 | 4.6 | 5.34 ± 0.03 |  |  |  |  |  |  |
| O=C1NCCc2cc(-c3cccc(C(F)(F)F)c3)ccc21 [Compound 12] | 2.3 | 5.65 ± 0.03 | 7.6 | 17.4 | 4.76 ± 0.04 | 8 fold |  |  | 2 | 2 |  |
| Cc1c(-c2ccccc2)ccc2c1CCNC2=O [Compound 14, 5-methyl-6-phenyl-3,4-dihydroisoquinolin-1(2H)-one] |  | 5.80 ± 0.03 | 17 | 26.4 | 4.58 ± 0.07 | 17 fold | 5 |  | 70 |  | aqueous solubility issues at higher concentrations |
| Cc1c(-c2cccnc2)ccc2c1CCNC2=O [Compound 15, 5-methyl-6-(pyridiny-3-yl)-3,4-dihydroisoquinolin-1(2H)-one] | 2.5 | 5.60 ± 0.04 | 12 | 30.4 | 4.52 ± 0.06 | 12 fold |  |  |  |  | increased solubility compared to 14 |
| Cc1c(-c2ccncc2)ccc2c1CCNC2=O [Compound 16, 5-methyl-6-(pyridiny-4-yl)-3,4-dihydroisoquinolin-1(2H)-one] | 1.4 | 5.84 ± 0.03 | 15 | 21.2 | 4.67 ± 0.04 | 15 fold |  |  |  |  | increased solubility compared to 14 |
| Cc1c(-c2ccc3[nH]ccc3c2)ccc2c1CCNC2=O [Compound 17, 6-(1H-indol-5-yl)-5-methyl-3,4-dihydroisoquinolin-1(2H)-one] | 1.1 | 5.96 ± 0.03 | 3.8 | 4.2 | 5.38 ± 0.04 | 4 fold |  |  |  |  |  |
| Cc1c(-c2cnc3[nH]ccc3c2)ccc2c1CCNC2=O [Compound 18, 5-methyl-6-(1H-pyrrolo[2,3-b]pyridin-5-yl)-3,4-dihydroisoquinolin-1(2H)-one] | 0.71 | 6.15 ± 0.03 | 17 | 12 | 4.92 ± 0.05 | 17 fold |  |  |  |  |  |
| Cc1c(-c2cnc3ccccc3c2)ccc2c1CCNC2=O [Compound 19, 5-methyl-6-(quinolin-3-yl)-3,4-dihydroisoquinolin-1(2H)-one] | 1.8 | 5.75 ± 0.02 | 7.8 | 14 | 4.86 ± 0.04 | 8 fold |  |  |  |  |  |
| Cc1c(-c2ccnc(F)c2)ccc2c1CCNC2=O [Compound 20, 6-(2-fluoropyridin-4-yl)-5-methyl-3,4-dihydroisoquinolin-1(2H)-one] | 1.9 | 5.71 ± 0.03 | 24 | 44.7 | 4.35 ± 0.05 | 24 fold |  |  | ~2 |  |  |
| Cc1c(-c2ccnc(Cl)c2)ccc2c1CCNC2=O [Compound 21, 6-(2-chloropyridin-4-yl)-5-methyl-3,4-dihydroisoquinolin-1(2H)-one] | 1.8 | 5.76 ± 0.03 | 15 | 27 | 4.57 ± 0.02 | retained similar selectivity |  |  |  |  |  |
| Cc1c(-c2cncc(F)c2)ccc2c1CCNC2=O [Compound 23, 6-(5-fluoropyridin-3-yl)-5-methyl-3,4-dihydroisoquinolin-1(2H)-one] | 2.2 | 5.66 ± 0.02 | 25 | 54.7 | 4.23 ± 0.03 | 25 fold |  |  |  |  |  |
| Cc1c(-c2cncc(C(F)(F)F)c2)ccc2c1CCNC2=O [Compound 24, 5-methyl-6-(5-(trifluoromethyl)pyridin-3-yl)-3,4-dihydroisoquinolin-1(2H)-on] |  | 5.57 ± 0.03 | 34 | 92.1 | 4.04 ± 0.03 | 34 fold and 35 fold |  |  |  |  |  |
| NC(=O)c1ccc(Oc2ccc(C(N)=O)cc2)cc1 [OUL35, 4,4′-oxydibenzamide, reference compound] |  |  |  | 2.1 | 5.68 ± 0.03 |  |  |  |  |  |  |

Reference: patent US10899733B2, “Inhibitors of PARPs that catalyze mono-ADP-ribosylation” (OREGON HEALTH & SCIENCE UNIVERSITY, priority 2017, dated 2021)
